Here are results for three compounds from PMC9377007, “An Unexpected Deuterium-Induced Metabolic Switch in Doxophylline” (ACS Medicinal Chemistry Letters, 2022).

The test system of data set [1] is P. aeruginosa-induced lung injury. Kind of data set: Pseudomonas aeruginosa-induced lung injury model. Conditions: P. aeruginosa-treated mice; for MPO activity in lungs / apoptosis in lung tissue, TUNEL assay / collagen deposition (Masson's trichrome) / histological examination by H&E staining / immunohistochemistry of PAR / immunohistochemistry of nitrotyrosine / total BAL cellularity: 80 mg/kg os daily for 7 days; for lung edema, ratio of wet to dry weight of lung tissue: 80 mg/kg os daily, day 7, versus vehicle. The class given is in vivo. The procedure: Lung edema at day 7 was measured as a ratio of wet to dry weight of excised lung tissue (Figure 7c).
Figure 7 Model of pulmonary fibrosis induced by P. aeruginosa. (a) Representative scheme of P. aeruginosa-induced lung injury model. (b) Total BAL cellularity of sham and Pseudomonas-treated mice (treated or not with 80 mg/kg doxophylline, d4-doxophylline, or d7-doxophylline). Results are reported as mean ± SEM of 10 mice for all groups. (c) Wet/dry lung weight ratio of sham and Pseudomonas-treated mice (treated or not with 80 mg/kg doxophylline, d4-doxophylline, or d7-doxophylline). Results are reported as mean ± SEM of 10 mice for all groups. (d) MPO activity in lungs of sham and Pseudomonas-treated mice (treated or not with 80 mg/kg doxophylline, d4-doxophylline, or d7-doxophylline). Results are reported as mean ± SEM of 10 mice for all groups. (e) Representative images of H&E staining of sham and Pseudomonas-treated mice (treated or not with 80 mg/doxophylline, d4-doxophylline, or d7-doxophylline). (f) Representative images of Masson’s trichrome staining of sham and Pseudomonas-treated mice (treated or not with 80 mg/doxophylline, d4-doxophylline and d7-doxophylline). p values: *, p < 0.05; **, p < 0.01; ***, p < 0.001; ****, p < 0.0001. […]
experiments were performed following the new regulations of USA (Animal Welfare Assurance No A5594 - 01), Europe (EU Directive 2010/63) , Italy (D.Lgs 2014/26) and the ARRIVE guidelines.
Tryptic soya agar beads laden with PA were produced as described. The mucoid PA strain NH57388A, was utilized. NH57388A-laden agar beads were prepared the day before inoculation, stored overnight at 4 °C, suspended in sterile PBS to deliver approximately 1 Å~ 106 CFU in 50 μ l per mouse. The inoculation dose […]
Trans-tracheal instillation of beads.
Mice were anaesthetized with inhaled isoflurane delivered initially in an anaesthetic box until unconscious, transferred to a surgical board and maintained under anesthesia with isoflurane via nose cone. The ventral cervical region was sterilized and 1-cm midline skin incision made just cranial to the thoracic inlet. The trachea was visualized by blunt dissection. Traction on the lower jaw was used to extend and straighten the trachea and a 22G intravenous catheter (BD Biosciences) used to cannulate the trachea. A 1-ml syringe, pre-filled with beads suspended in PBS, was attached to the cannuale. The cannulae and syringe were left in-situ for 5-seconds following depression of the plunger, followed by slow withdrawal. The animal was elevated head up to 45- […]
intrapulmonary bead instillation. If evidence of respiratory distress (rapid or labored respiration/ gasping) occurred during the procedure anesthesia was rapidly reversed and oxygen alone administered via nose cone.
The incision was closed with surgical staples. Buprenorphine analgesia was administered subcutaneously post-operatively. Animals were weighed and scored clinically daily. Experiments were terminated at 2-weeks post-inoculation via anesthetic overdose.
Mice were randomly allocated into the following groups. PSEUDOMONAS group: mice were subjected to pseudomonas-induced lung injury (n = 10); PSEUDOMONAS group + doxophylline: Identical to the pseudomonas + vehicle group but were treated daily with doxophylline xo (80 mg/kg os) 1 h after pseudomonas instillation and continued daily for 7 days (n = 10); PSEUDOMONAS group + d4- doxophylline:
Identical to the pseudomonas + vehicle group but were treated daily with doxophylline deuterated d4 (80 mg/kg os) 1 h after pseudomonas instillation and continued daily for 7 days ( n = 10); PSEUDOMONAS group + d7- doxophylline: Identical to the pseudomonas + vehicle group but were treated daily with doxophylline deuterated d7 (80 mg/kg os) 1 h after pseudomonas instillation and continued daily for 7 days (n = 10); SHAM group: mice will receive the vehicle administration daily for 7 days ([…]); SHAM + doxophylline group: […]

A short description of data set [2]: Comparative pharmacokinetic study, single-dose administration in mice. The class given is in vivo. To be noted: for AUC(0-t) / Cmax at 24 h / clearance at 24 h / half-life at 24 h / CL/F at 24 h: male, CD1, mouse, plasma, single dose; for decrease of the area under the curve (AUC) versus doxophylline: oral administration. The procedure:
A comparative pharmacokinetic study was then performed by evaluating the plasma concentration profiles of doxophylline and its deuterated analogues after intravenous and oral single-dose administration in mice and minipigs. […] Since the deuterium kinetic isotope effect is often affected by interspecies variability,[28] a PK study was also performed in minipigs. […] A total of 96 CD1 male mice, approximately 6 weeks old and with a body weight of approximately 30 g, were purchased from Envigo RMS srl, (San Pietro al Natisone, UD, Italy). Four males Göttingen minipigs approximately 4-5 months old and weighing 9-11 Kg were purchased from Ellegaard Göttingen Minipigs (Dalmose, Denmark). Protocol for drug administration and blood sampling. Mice. Blood samples were collected under light isoflurane anaesthesia from the sublingual vein at the following time points (n=3): pre-dose and 5, 15, 30 minutes, 1, 2, 4, 8 and 24 hours after i.v. dosing (20 mg/Kg, dose volume 5 mL/Kg) and pre-dose and 15, 30 minutes, 1, 2, 4, 8 and 24 hours after oral gavage dosing (80 mg/Kg, dose volume 5 mL/Kg). Each animal was sampled on each day at a maximum of two alternating time points. Samples were transferred into tubes containing K3EDTA as anticoagulant, centrifuged, and stored at -80 °C. Minipig. Blood samples were collected from the jugular vein at the following time points (n=4): pre-dose and 5, 15, 30 minutes, 1, 2, 4, 8 and 24 hours after i.v. dosing (5 mg/Kg, dose volume 1 mL/Kg) and pre-dose and 15, 30 minutes, 1, 2, 4, 8 and 24 hours after oral gavage dosing (20 mg/Kg, dose volume 4 mL/Kg). Samples were transferred into tubes containing K3EDTA as anticoagulant, centrifuged, and stored at -80 °C. Sample preparation for HPLC-MS analysis. A volume of 50 µL of caffeine solution (1 mg/L in water-methanol 1:1) were added to plasma sample aliquots (50 µL); after the addition of the precipitant solution (100 µL of 10% ice-cold trichloroacetic acid in water), samples were centrifuged at 13,000 rpm for ten minutes and the supernatant injected onto the HPLC system (see supporting information for chromatographic conditions). If the levels of analytes were over range, plasma samples were preventively diluted with blank plasma. Data analysis. Quantification of doxophylline and its deuterated analogues d4 and d7 as well as their main metabolites, 7- theophylline acetic acid (T-COOH), 7-hydroxyethyl theophylline (Eto) and theophylline, was performed by using the calibration curves obtained with the corresponding working standards of the analytes and using caffeine as internal standard. The pharmacokinetic parameters for doxophylline and its deuterated analogues were calculated by plotting the plasma concentration curves versus time obtained from the average values of three animals, using PK Solver 2.0.1 S7

Broadly, the AUC(0-t) is the area under the concentration-time curve up to a stated or last time point. A word on the Cmax: it is the peak of the concentration-time curve. What is called clearance is the volume of plasma or blood freed of the substance per unit of time. Lower therefore signals a low capacity for elimination. Usually half-life stands for how long it takes for the measured level to halve. Low readings indicate rapid decline, high ones slow decline. By CL/F is commonly meant the apparent clearance, not corrected for the fraction that reaches the circulation.

With `[2H]C1([2H])OC([2H])(C([2H])([2H])n2cnc3c2c(=O)n(C)c(=O)n3C)OC1([2H])[2H]` [d7-doxophylline], in data set [1], the “MPO activity in lungs” value is “significantly reduced”; the “apoptosis in lung tissue, TUNEL assay” value is listed as “reverted”; the “collagen deposition (Masson's trichrome)” value was “effect”; the “histological examination by H&E staining” value is “reduction of the inflammatory interstitial infiltrate”. In addition, in data set [1], the “immunohistochemistry of PAR” value is on record as “effect”; the immunohistochemistry of nitrotyrosine result is listed as “effect”; the “total BAL cellularity” value is on record as “significantly reduced”; the “lung edema, ratio of wet to dry weight of lung tissue” value was “considerably decreased”. In addition, in data set [2] (intravenous, 20 mg/kg), the AUC(0-t) came out at 4920 ng·h/mL, the Cmax at 24 h came out at 10700 ng/mL, the clearance at 24 h was 68.3 mL/min/kg and the half-life at 24 h is 1 h. In data set [2] (oral, 80 mg/kg), this compound had an AUC(0-t) of 33600 ng·h/mL, a CL/F at 24 h of 40 mL/min/kg, a Cmax at 24 h of 19200 ng/mL and a half-life at 24 h of 2.1 h. Further, the “decrease of the area under the curve (AUC) versus doxophylline” value in data set [2] worked out at 40%.
In the case of `[2H]C1([2H])OC(Cn2cnc3c2c(=O)n(C)c(=O)n3C)OC1([2H])[2H]` [d4-doxophylline], in data set [1], the “MPO activity in lungs” value is on record as “lesser nonsignificant effect”; the “apoptosis in lung tissue, TUNEL assay” value is reported as “did not have any effect”; the “collagen deposition (Masson's trichrome)” value is on record as “lesser or no effect”; the “histological examination by H&E staining” value is listed as “reduction of the inflammatory interstitial infiltrate”. Moreover, in data set [1], the “immunohistochemistry of PAR” value is “lesser or no effect”, the immunohistochemistry of nitrotyrosine result was “lesser or no effect” and the “total BAL cellularity” value is listed as “increased total BAL cellularity”. In data set [2] (intravenous, 20 mg/kg), this compound gave an AUC(0-t) of 5410 ng·h/mL, a Cmax at 24 h of 12300 ng/mL, a clearance at 24 h of 61.7 mL/min/kg and a half-life at 24 h of 1.5 h. In data set [2] (oral, 80 mg/kg), this compound gave an exposure AUC(0-t) of 31400 ng·h/mL, a CL/F at 24 h of 41.7 mL/min/kg, a Cmax at 24 h of 16800 ng/mL and a half-life at 24 h of 1.7 h. In addition, the “decrease of the area under the curve (AUC) versus doxophylline” value in data set [2] is 44%.
`Cn1c(=O)c2c(ncn2CC2OCCO2)n(C)c1=O` [doxophylline]: in data set [1], the “MPO activity in lungs” value is given as “significantly reduced”; the “apoptosis in lung tissue, TUNEL assay” value is listed as “reverted”; the “collagen deposition (Masson's trichrome)” value is reported as “effect”; the “histological examination by H&E staining” value was “reduction of the inflammatory interstitial infiltrate”. For the same compound, in data set [1], the “immunohistochemistry of PAR” value was “effect”; the immunohistochemistry of nitrotyrosine entry was “effect”; the “total BAL cellularity” value was “significantly reduced”; the “lung edema, ratio of wet to dry weight of lung tissue” value is “considerably decreased”. Also, in data set [2] (intravenous, 20 mg/kg), the AUC(0-t) was 6730 ng·h/mL, the peak level (Cmax at 24 h) was 15500 ng/mL, the clearance at 24 h was 48.3 mL/min/kg and the half-life at 24 h is 1.1 h. In data set [2] (oral, 80 mg/kg), the AUC(0-t) came to 55900 ng·h/mL, the CL/F at 24 h was 23.3 mL/min/kg, the Cmax at 24 h turned out to be 18700 ng/mL and the half-life at 24 h is 1.6 h.
